Experimental data taken from US20220073536A1 (Rigel Pharmaceuticals, Inc., priority 2003, published 2022).

Tests used:
[1] = tested on: cultured human mast cells (CHMC); experiment: CHMC low cell density IgE activation: tryptase assay; type: cell-based; conditions: low cell density CHMC, IgE activation, tryptase
Procedure, shortened: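 CHMC were seeded at 1000–1500 cells/well in MT buffer and incubated 1 hr at 37 °C. They were then stimulated with anti-IgE for 30 min at 37 °C, with unstimulated wells as controls. Released tryptase in the supernatant was measured with a fluorogenic substrate after 30 min at room temperature.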

[2] = tested on: cultured human mast cells (CHMC); experiment: CHMC low cell density ionomycin activation: tryptase assay; type: cell-based; conditions: low cell density CHMC, tryptase, 3 pt, read-out: LD Tryptase, CHMC, Iono, 3 pt
[3] = 3 pt, read-out: LD Tryptase, CHMC, IgE, 3 pt
[4] = Homo sapiens, Mast cell, 3 pt, read-out: LD Tryptase, CHMC, IgE, 3 pt
[5] = Homo sapiens, Mast cell, 8 pt, read-out: LD Tryptase, CHMC, IgE, 8 pt
[6] = 8 pt, read-out: LD Tryptase, CHMC, IgE, 8 pt

SMILES	IC50 [1, 3]	IC50 [2]	IC50 [1, 4]	IC50 ([2]; Homo sapiens, Mast cell)	IC50 [1, 5]	IC50 [1, 6]
Fc1cnc(Cl)nc1Nc1ccc2c(n1)NCCO2 [Compound 1117, 2-Chloro-5-fluoro-N4-(3,4-dihydro-2H,4H-5-pyrid[1,4]oxazin-6-yl)-4-pyrimidineamine]	> 10 µM	> 10 µM	–	–	–	–
CC(C)(C)OC(=O)N1CC(Nc2nc(Nc3ccc(N4CCOCC4)cc3)ncc2F)C1 [Compound 1118, N4-(1-tert-Butoxycarbonylazetidin-3-yl)-5-fluoro-N2-(4-morpholinophenyl)-2,4-pyrimidinediamine]	–	–	< 10 µM	< 10 µM	–	–
CC(=O)N1CCN(c2ccc(Nc3ncc(F)c(NC4CN(C(=O)OC(C)(C)C)C4)n3)cc2)CC1 [Compound 1119, N2-[4-(4-Acetylpiperazino)phenyl]-N4-(1-tert-butoxycarbonylazetidin-3-yl)-5-fluoro-2,4-pyrimidinediamine]	–	–	< 10 µM	> 10 µM	–	–
CC(=O)N1CCN(c2cccc(Nc3ncc(F)c(NC4CN(C(=O)OC(C)(C)C)C4)n3)c2)CC1 [Compound 1120, N2-[3-(4-Acetylpiperazino)phenyl]-N4-(1-tert-butoxycarbonylazetidin-3-yl)-5-fluoro-2,4-pyrimidinediamine]	–	–	> 10 µM	> 10 µM	–	–
Fc1cnc(Nc2ccc(N3CCOCC3)cc2)nc1Nc1cc(C2CC2)n[nH]1 [Compound 1121]	–	–	< 10 µM	> 10 µM	< 10 µM	–
CCOC(=O)N1CCN(c2ccc(Nc3ncc(F)c(NC4CN(C(=O)OC(C)(C)C)C4)n3)cc2)CC1 [Compound 1122]	–	–	< 10 µM	> 10 µM	–	–
Fc1cnc(Nc2ccc(N3CCOCC3)cc2)nc1NC1CNC1 [Compound 1123]	–	–	> 10 µM	< 10 µM	–	–
CC(=O)N1CCN(c2ccc(Nc3ncc(F)c(NC4CNC4)n3)cc2)CC1 [Compound 1124]	–	–	> 10 µM	> 10 µM	–	–
CCOC(=O)N1CCN(c2ccc(Nc3ncc(F)c(NC4CNC4)n3)cc2)CC1 [Compound 1125]	–	–	> 10 µM	> 10 µM	–	–
Fc1cnc(Nc2cccc(N3CCOCC3)c2)nc1NC1CNC1 [Compound 1126]	–	–	> 10 µM	< 10 µM	–	–
CC(=O)N1CCN(c2cccc(Nc3ncc(F)c(NC4CNC4)n3)c2)CC1 [Compound 1127]	–	–	< 10 µM	> 10 µM	–	–
Fc1cnc(Nc2ccc(N3CCOCC3)cc2)nc1Nc1ccc2c(n1)NCCO2 [Compound 1128, N4-(3,4-Dihydro-2H,4H-5-pyrid[1,4]oxazin-6-yl)-5-fluoro-N2-(4-morpholinophenyl)-2,4-pyrimidinediamine]	–	> 10 µM	–	–	–	< 10 µM
CN(c1nc(Nc2ccc(N3CCOCC3)cc2)ncc1F)C1CCC1 [Compound 1139, N4-Cyclobutyl-5-fluoro-N4-methyl-N2-(4-morpholinophenyl)-2,4-pyrimidinediamine]	–	–	< 10 µM	> 10 µM	–	–
CC(=O)N1CCN(c2ccc(Nc3ncc(F)c(N(C)C4CCC4)n3)cc2)CC1 [Compound 1140, N2-[4-(4-Acetylpiperazino)phenyl]-N4-cyclobutyl-5-fluoro-N4-methyl-2,4-pyrimidinediamine]	–	–	< 10 µM	> 10 µM	–	–
CN1CCN(c2ccc(Nc3ncc(F)c(Nc4ccc5c(n4)NCCO5)n3)cc2)CC1 [Compound 1141, N4-(3,4-Dihydro-2H,4H-5-pyrid[1,4]oxazin-6-yl)-5-fluoro-N2-[4-(4-methylpiperazino)phenyl]-2,4-pyrimidinediamine]	< 10 µM	> 10 µM	–	–	–	< 10 µM
CN1CCN(c2cccc(Nc3ncc(F)c(Nc4ccc5c(n4)NCCO5)n3)c2)CC1 [Compound 1142, N4-(3,4-Dihydro-2H,4H-5-pyrid[1,4]oxazin-6-yl)-5-fluoro-N2-[3-(4-methylpiperazino)phenyl]-2,4-pyrimidinediamine]	< 10 µM	> 10 µM	–	–	–	< 10 µM
Fc1cnc(Nc2cccc(-c3ncco3)c2)nc1Nc1ccc2c(n1)NCCO2 [Compound 1143, N4-(3,4-Dihydro-2H,4H-5-pyrid[1,4]oxazin-6-yl)-5-fluoro-N2-[3-(oxazol-2-yl)phenyl]-2,4-pyrimidinediamine]	< 10 µM	> 10 µM	–	–	–	< 10 µM
COc1cc(Nc2ncc(F)c(Nc3ccc4c(n3)NCCO4)n2)cc(OC)c1OC [Compound 1145, N4-(3,4-Dihydro-2H,4H-5-pyrid[1,4]oxazin-6-yl)-5-fluoro-N2-(3,4,5-trimethoxyphenyl)-2,4-pyrimidinediamine]	–	–	< 10 µM	> 10 µM	< 10 µM	–
COc1ccc(Nc2ncc(F)c(Nc3ccc4c(n3)NCCO4)n2)cc1Cl [Compound 1146, N2-(3-Chloro-4-methoxyphenyl)-N4-(3,4-dihydro-2H,4H-5-pyrid[1,4]oxazin-6-yl)-5-fluoro-2,4-pyrimidinediamine]	< 10 µM	> 10 µM	–	–	–	–

Continued, values first:

IC50 [1, 3]	IC50 [2]	IC50 [1, 4]	IC50 ([2]; Homo sapiens, Mast cell)	IC50 [1, 5]	IC50 [1, 6]	SMILES
–	–	< 10 µM	> 10 µM	< 10 µM	–	CCOC(=O)N1CCN(c2ccc(Nc3ncc(F)c(N(C)C4CCC4)n3)cc2)CC1 [Compound 1148, N4-Cyclobutyl-N2-[4-(4-ethoxycarbonylpiperazino)phenyl]-5-fluoro-N4-methyl-2,4-pyrimidinediamine]
–	–	< 10 µM	> 10 µM	–	–	CN(c1nc(Nc2cccc(N3CCOCC3)c2)ncc1F)C1CCC1 [Compound 1149, N4-Cyclobutyl-5-fluoro-N4-methyl-N2-(3-morpholinophenyl)-2,4-pyrimidinediamine]
–	–	< 10 µM	> 10 µM	–	–	CC(=O)N1CCN(c2cccc(Nc3ncc(F)c(N(C)C4CCC4)n3)c2)CC1 [Compound 1150, N2-[3-(4-Acetylpiperazino)phenyl]-N4-cyclobutyl-5-fluoro-N4-methyl-2,4-pyrimidinediamine]
–	–	< 10 µM	> 10 µM	< 10 µM	–	CN1CCN(c2cccc(Nc3ncc(F)c(N(C)C4CCC4)n3)c2)CC1 [Compound 1151, N4-Cyclobutyl-5-fluoro-N4-methyl-N2-[3-(4-methylpiperazino)phenyl]-2,4-pyrimidinediamine]
–	–	< 10 µM	> 10 µM	–	–	CCOC(=O)N1CCN(c2cccc(Nc3ncc(F)c(N(C)C4CCC4)n3)c2)CC1 [Compound 1152, N4-Cyclobutyl-N2-[3-(4-ethoxycarbonylpiperazino)phenyl]-5-fluoro-N4-methyl-2,4-pyrimidinediamine]
–	–	> 10 µM	> 10 µM	–	–	COc1cc(C(N)=O)c(Nc2ncc(F)c(N(C)C3CCC3)n2)cc1OCc1ccccc1 [Compound 1153, N2-(2-Aminocarbonyl-5-benzoxy-4-methoxyphenyl)-N4-cyclobutyl-5-fluoro-N4-methyl-2,4-pyrimidinediamine]
–	–	< 10 µM	> 10 µM	–	–	O=C(Nc1ccc(Nc2ncc(F)c(NC3CCC3)n2)cc1)c1ccccc1 [Compound 1154, N2-(4-Benzamidophenyl)-N4-cyclobutyl-5-fluoro-2,4-pyrimidinediamine]
–	–	< 10 µM	> 10 µM	–	–	Fc1cnc(Nc2ccc(N3CCOCC3)cc2)nc1NC1CCCC1 [Compound 1155, N4-Cyclopentyl-5-fluoro-N2-(4-morpholinophenyl)-2,4-pyrimidinediamine]
–	–	< 10 µM	> 10 µM	–	–	CC(=O)N1CCN(c2ccc(Nc3ncc(F)c(NC4CCCC4)n3)cc2)CC1 [Compound 1156, N2-[4-(4-Acetylpiperazino)phenyl]-N4-cyclopentyl-5-fluoro-2,4-pyrimidinediamine]
